Source: paper PMC6907063, “The Herb-Drug Pharmacokinetic Interaction of Fluoxetine and Its Metabolite Norfluoxetine with a Traditional Chinese Medicine in Rats by LC-MS/MS” (Evidence-based Complementary and Alternative Medicine : eCAM, 2019)

What was measured:
[1] = continuous administration of FLU for 2 weeks; cited from earlier work
[2] = Stability of the analytes in QC samples (LC-MS/MS method validation); assay type: physicochemical, rat; conditions: n = 5
Procedure: Quality control (QC) samples were prepared in the same way as mentioned above. […] All stability studies were evaluated at low, medium, and high QC levels with five determinations for each test. The relative standard deviations (RSDs) were used to evaluate the stability of the analytes. The RSD was expected to be within ±15.0%.

[3] = rat, in vivo, po, 1.8 mg/kg
in vivo = conditions: Sprague-Dawley, rat, po, 1.8 mg/kg
[4] = Pharmacokinetics of fluoxetine and its metabolite norfluoxetine in rat plasma after oral fluoxetine with or without CSGS for 14 d (LC-MS/MS)

For COc1ccc2c(c1)[C@]13CCCC[C@@H]1[C@H](C2)N(C)CC3 [dextromethorphan], the “increase of AUC” value [1] is given as 27 times.
For CNCCC(Oc1ccc(C(F)(F)F)cc1)c1ccccc1 (stereo not drawn) [fluoxetine], the “Measured C, at room temperature for 4 h” value ([2]; QC concentration 1 ng/ml) was 1.010 ± 0.028 ng/mL, the “Measured C, freeze-thaw three cycles” value ([2]; QC concentration 1 ng/ml) was 0.997 ± 0.012 ng/mL and the “Measured C, −20°C for 4 weeks” value ([2]; QC concentration 1 ng/ml) was 0.987 ± 0.018 ng/mL. For the same molecule, the “Measured C, at room temperature for 4 h” value ([2]; QC concentration 4 ng/ml) was 3.965 ± 0.210 ng/mL, the “Measured C, freeze-thaw three cycles” value ([2]; QC concentration 4 ng/ml) was 3.991 ± 0.212 ng/mL and the “Measured C, −20°C for 4 weeks” value ([2]; QC concentration 4 ng/ml) was 4.012 ± 0.231 ng/mL. The “Measured C, at room temperature for 4 h” value ([2]; QC concentration 16 ng/ml) was 15.832 ± 0.536 ng/mL, the “Measured C, freeze-thaw three cycles” value ([2]; QC concentration 16 ng/ml) was 15.872 ± 0.845 ng/mL and the “Measured C, −20°C for 4 weeks” value ([2]; QC concentration 16 ng/ml) was 15.872 ± 0.654 ng/mL. The “AUC (0–∞) of fluoxetine” value [3] was 12.20 ± 2.67 ug/L∗h, the Tmax (in vivo) was 0.75 h and the Cmax (in vivo; C max of fluoxetine) was 2.19 ng/mL. It also gave a CL/F (in vivo; CLz/F of fluoxetine) of 2490 mL/min/kg, a Cmax (in vivo; Cmax of fluoxetine) of 2.19 ng/mL and an MRT last (in vivo; MRT (0–t) of fluoxetine) of 7.67 ± 1.02 h. The half-life (in vivo; t1/2z of fluoxetine) was 8.95 ± 7.5 h, the “AUCs (0–∞) of FLU” value ([4]; FLU group (fluoxetine 1.8 mg/kg·d for 14 d)) was 12.20 ± 2.67 μg/L∗h and the “AUCs (0–∞) of FLU” value ([4]; multiple dose group A (CSGS […]·d + fluoxetine 1.8 mg/kg·d)) was 11.20 ± 3.86 μg/L∗h. The “AUCs (0–∞) of FLU” value ([4]; multiple dose group B (CSGS 11.8 g/kg·d + fluoxetine 1.8 mg/kg·d)) was 14.54 ± 3.22 μg/L∗h and the “AUCs (0–∞) of FLU” value ([4]; multiple dose group C (CSGS 23.6 g/kg·d + fluoxetine 1.8 mg/kg·d)) was 22.01 ± 4.49 μg/L∗h.
In the case of CC[C@H](C)C(=O)O[C@H]1C[C@@H](C)C=C2C=C[C@H](C)[C@H](CC[C@@H]3C[C@@H](O)CC(=O)O3)[C@H]21 [lovastatin], the “effect on AUC” value [1] is given as “did not affect”.
For Cc1ncc2n1-c1ccc(Cl)cc1C(c1ccccc1F)=NC2 [midazolam], the “effect on AUC” value [1] is given as “did not affect”.
With NCCC(Oc1ccc(C(F)(F)F)cc1)c1ccccc1 (stereo not drawn) [norfluoxetine] the “Measured C, at room temperature for 4 h” value ([2]; QC concentration 2 ng/ml) was 1.943 ± 0.054 ng/mL, the “Measured C, freeze-thaw three cycles” value ([2]; QC concentration 2 ng/ml) was 1.879 ± 0.045 ng/mL and the “Measured C, −20°C for 4 weeks” value ([2]; QC concentration 2 ng/ml) was 1.873 ± 0.044 ng/mL. For the same molecule, the “Measured C, at room temperature for 4 h” value ([2]; QC concentration 4 ng/ml) was 3.934 ± 0.186 ng/mL, the “Measured C, freeze-thaw three cycles” value ([2]; QC concentration 4 ng/ml) was 4.012 ± 0.231 ng/mL and the “Measured C, −20°C for 4 weeks” value ([2]; QC concentration 4 ng/ml) was 3.891 ± 0.156 ng/mL. For the same molecule, the “Measured C, at room temperature for 4 h” value ([2]; QC concentration 8 ng/ml) was 7.897 ± 0.234 ng/mL, the “Measured C, freeze-thaw three cycles” value ([2]; QC concentration 8 ng/ml) was 7.987 ± 0.341 ng/mL and the “Measured C, −20°C for 4 weeks” value ([2]; QC concentration 8 ng/ml) was 7.871 ± 0.246 ng/mL.
In the case of COc1ccc2[nH]c([S+]([O-])Cc3ncc(C)c(OC)c3C)nc2c1 (stereo not drawn) [omeprazole], the “increase of AUC” value [1] is listed as 7.1 times.
